What was measured:
rat β1 GBD = details: cited from earlier work; for concentration that displaces the β1 GBD from glycogen: ref Polekhina et al. (2005)
[1] = target: bacterially expressed rat β1 GBD; parameters: method as in Koay et al. (2007); details: NMR method; ref Koay et al. (2007); read-out: KD for binding to rat β1 GBD; cited from earlier work
native rat liver AMPK = native rat liver AMPK (Rattus norvegicus, UniProt P80386); experiment: AMPK kinase assay (SAMS peptide), native rat liver AMPK in solution; type: biochemical; details: up to 100 mM
Procedure: We next tested the effect of glycogen on the activity of the native AMPK complex purified from rat liver ([Hawley et al., 1996]). […] The bovine liver glycogen inhibited AMPK completely with an IC50 (concentration causing half-maximal inhibition) of 30 ± 9 mM glucose equivalents (Figure 2A).
(§1) Figure 2 Allosteric Inhibition of AMPK by Different Glycogen Preparations (A) Concentration dependence of inhibition of native rat liver AMPK by preparations of bovine and rat liver glycogen; glycogen concentrations expressed as glucose produced after total hydrolysis. Data were fitted to an IC50 equation (see Supplemental Experimental Procedures), and curves were generated using the estimated best-fit parameters. (B) Concentration dependence of inhibition of native rat liver AMPK by bovine liver glycogen in the presence and absence of 200 μM AMP; curves were generated as in (A). (C) Inhibition by bovine liver glycogen of recombinant AMPK complex (myc-α1:β1:γ1) containing full-length (1–270) or truncated β1 subunit lacking the GBD (172–270). Complexes were expressed in CCL13 cells and purified by immunoprecipitation prior to assay with or without glycogen (200 mM glucose equivalents). Data are means ± SEM (n = 3). ^∗Activity different from control without glycogen by t test (p < 0.05). (D) Inhibition by bovine liver glycogen (200 mM glucose equivalents) of purified, native rat liver AMPK (a mixture of α1β1γ1 and α2β1γ1 complexes) that had been recovered by immunoprecipitation (IP) using anti-α1, anti-α2, or a mixture of anti-α1/-α2 antibodies or assayed in solution without immunoprecipitation. Results are expressed as percentages of the activity in controls without glycogen, and data are mean ± SEM (n = 3). (E) Absorption spectra of bovine and rat liver glycogen preparations in complex with iodine. […]
Purification of Native Rat Liver, AMPK, Recombinant AMPK, and AMPK Assays AMPK was purified from rat liver as far as the gel filtration step (Hawley et al., 1996). The kinase was assayed using the SAMS peptide (Davies et al., 1989). IC50 values for inhibition were estimated by fitting data using GraphPad Prism to the equation: Activity = Residual + Maximum - (Maximum × [Inhibitor]/(IC50+[Inhibitor])) where Residual is the activity in the presence of maximal inhibition, Maximum is the maximal inhibition and [inhibitor] is the concentration of the inhibitory molecule. For recombinant AMPK, constructs encoding myc-tagged α1, β1 and γ1 subunits of AMPK were co-transfected into CCL13 cells using modifications of previous methods (Woods et al., 1996). DNA (10 µg) was dissolved in sterile water (450 µl) to which 50 μl of 2.5 M CaCl2 was added, and the solution vortexed for 1 min. […]

GBD = target: T1, GBD (Rattus norvegicus, UniProt P80386); experiment: binding of linear oligosaccharides to the GBD (data not shown)
T1 construct: The rat β1 GBD (residues 70-172 was cloned into pGEX6P2, expressed in Escherichia coli (BL21)); GST (N); made in house; host or cells: E. coli BL21 (inferred)
T1 sequence (P80386 70-172): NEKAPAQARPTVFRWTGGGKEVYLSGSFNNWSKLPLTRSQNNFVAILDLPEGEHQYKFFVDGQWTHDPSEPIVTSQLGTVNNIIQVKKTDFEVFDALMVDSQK

[2] = target: T2, recombinant AMPK complex (myc-α1:β1:γ1) (Rattus norvegicus, UniProt P80386); experiment: recombinant wild-type AMPK expressed in CCL13 cells, assayed in anti-myc immunoprecipitates; type: biochemical; details: 2 mM; Figure 6C
T2 construct: recombinant AMPK complex (myc-α1:β1:γ1) containing full-length (1–270) or truncated β1 subunit lacking the GBD (172–270); made in house; host or cells: human CCL13 cells, co-transfected; isolated by anti-myc immunoprecipitation
Excerpt: as §1, with “(D) Inhibition by bovine liver glycogen (200 mM glucose equivalents) of purified, native rat liver AMPK (a mixture of α1β1γ1 and α2β1γ1 complexes) that had been recovered by immunoprecipitation (IP) using anti-α1, anti-α2, or a mixture of anti-α1/-α2 antibodies or assayed in solution without immunoprecipitation.” left out, “3).” for “3). (E) Absorption spectra of bovine and rat liver glycogen preparations in complex with iodine.”

[3] = target: T3, recombinant α1β1γ1 complex with β1 GBD mutations (W100G/W133A and others) (Rattus norvegicus, UniProt P80386, W100G/W133A); experiment: recombinant AMPK with GBD point mutations in β1, assayed in immunoprecipitates; type: biochemical; details: 2 mM; Figure 4B
T3 construct: we made mutations in full-length β1 coexpressed with α1 and γ1 in CCL13 cells; made in house; host or cells: human CCL13 cells, co-transfected; isolated by anti-myc immunoprecipitation
Excerpt: To test whether mutations that interfered with the binding of glycogen to the GBD also affected inhibition of AMPK by glycogen, we made mutations in full-length β1 coexpressed with α1 and γ1 in CCL13 cells, isolated the complex by immunoprecipitation via the myc tag on α1, and assayed the kinase activity in the presence and absence of glycogen. The activities were adjusted to correct for slight variation in recovery of the α1 subunit assessed by blotting (inset in Figure 3A). […] Because all of these assays were conducted in resuspended immunoprecipitates, the degree of inhibition of the wild-type was < 50%, as discussed in the previous section. […]
Figure 3 Effect of β Subunit Mutations on Inhibition of Recombinant AMPK Complexes by Glycogen (A) Myc-α1, γ1, and β1 with the wild-type sequence or the indicated mutations were expressed in CCL13 cells, immunoprecipitated, and assayed ± bovine liver glycogen (200 mM glucose equivalents); results are mean ± SEM (n = 3). […] (C) Myc-α1, γ1, and β1 with the wild-type sequence or with W100G/W133A mutations were expressed in CCL13 cells, immunoprecipitated using anti-myc (left) or anti-FLAG (right) antibodies, and analyzed by western blotting using anti-myc antibodies (top panels) or a mixture of anti-β1 and -γ1 antibodies (bottom panels). […]

native rat liver AMPK, sequence (P80386 2-270): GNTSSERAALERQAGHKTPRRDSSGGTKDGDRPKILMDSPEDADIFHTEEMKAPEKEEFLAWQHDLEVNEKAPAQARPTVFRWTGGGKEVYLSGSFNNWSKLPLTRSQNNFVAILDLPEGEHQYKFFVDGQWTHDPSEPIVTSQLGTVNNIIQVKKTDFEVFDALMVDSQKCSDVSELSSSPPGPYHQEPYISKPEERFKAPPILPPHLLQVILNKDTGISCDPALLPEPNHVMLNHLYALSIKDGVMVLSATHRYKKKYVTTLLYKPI
native rat liver AMPK, sequence (P54645 whole entry partner): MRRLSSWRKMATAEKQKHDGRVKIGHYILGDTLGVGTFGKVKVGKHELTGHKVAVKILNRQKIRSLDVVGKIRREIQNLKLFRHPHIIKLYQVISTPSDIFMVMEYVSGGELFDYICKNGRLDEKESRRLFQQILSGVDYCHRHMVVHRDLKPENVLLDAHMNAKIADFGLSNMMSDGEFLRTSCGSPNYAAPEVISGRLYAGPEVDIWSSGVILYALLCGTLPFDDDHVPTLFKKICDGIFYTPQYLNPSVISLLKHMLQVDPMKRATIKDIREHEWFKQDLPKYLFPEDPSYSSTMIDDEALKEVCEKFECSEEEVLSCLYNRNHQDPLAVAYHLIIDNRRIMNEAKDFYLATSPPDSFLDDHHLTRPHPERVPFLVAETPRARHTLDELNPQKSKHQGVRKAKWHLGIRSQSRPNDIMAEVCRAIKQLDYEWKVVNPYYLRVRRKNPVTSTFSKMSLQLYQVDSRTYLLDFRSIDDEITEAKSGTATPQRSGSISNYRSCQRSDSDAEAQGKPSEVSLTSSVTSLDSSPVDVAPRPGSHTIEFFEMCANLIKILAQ
native rat liver AMPK, sequence (Q09137 whole entry partner): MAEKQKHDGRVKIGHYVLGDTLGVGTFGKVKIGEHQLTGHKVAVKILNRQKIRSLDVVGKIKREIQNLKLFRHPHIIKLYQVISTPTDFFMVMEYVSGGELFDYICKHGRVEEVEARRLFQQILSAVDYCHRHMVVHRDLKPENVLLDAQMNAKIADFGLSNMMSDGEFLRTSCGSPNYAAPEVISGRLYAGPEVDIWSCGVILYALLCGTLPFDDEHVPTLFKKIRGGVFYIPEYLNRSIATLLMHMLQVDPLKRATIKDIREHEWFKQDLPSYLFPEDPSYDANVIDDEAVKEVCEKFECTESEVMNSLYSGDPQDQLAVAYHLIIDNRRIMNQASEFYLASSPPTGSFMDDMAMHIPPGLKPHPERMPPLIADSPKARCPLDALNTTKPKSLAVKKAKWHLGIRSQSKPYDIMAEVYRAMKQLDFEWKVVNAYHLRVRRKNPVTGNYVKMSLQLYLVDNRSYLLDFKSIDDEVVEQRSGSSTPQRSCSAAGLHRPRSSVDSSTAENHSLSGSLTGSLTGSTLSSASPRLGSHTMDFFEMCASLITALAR
native rat liver AMPK, sequence (P80385 whole entry partner): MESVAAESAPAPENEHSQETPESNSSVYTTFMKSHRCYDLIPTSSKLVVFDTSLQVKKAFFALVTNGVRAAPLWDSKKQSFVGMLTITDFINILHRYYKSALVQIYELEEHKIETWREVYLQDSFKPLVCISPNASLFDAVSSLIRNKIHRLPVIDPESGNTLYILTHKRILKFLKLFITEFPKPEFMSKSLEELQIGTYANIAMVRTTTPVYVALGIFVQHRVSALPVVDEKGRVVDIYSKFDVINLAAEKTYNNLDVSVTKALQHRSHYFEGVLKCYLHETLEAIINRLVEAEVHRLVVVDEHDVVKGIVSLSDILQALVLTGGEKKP
T3 sequence (P80386 2-270 W100G/W133A): as the sequence (P80386 2-270) above, with W99G, W132A counted along it
T3 sequence (P54645 whole entry partner): as the sequence (P54645 whole entry partner) above
T3 sequence (P80385 whole entry partner): as the sequence (P80385 whole entry partner) above
T2 sequence (P80386 whole entry, the tested form may be a part): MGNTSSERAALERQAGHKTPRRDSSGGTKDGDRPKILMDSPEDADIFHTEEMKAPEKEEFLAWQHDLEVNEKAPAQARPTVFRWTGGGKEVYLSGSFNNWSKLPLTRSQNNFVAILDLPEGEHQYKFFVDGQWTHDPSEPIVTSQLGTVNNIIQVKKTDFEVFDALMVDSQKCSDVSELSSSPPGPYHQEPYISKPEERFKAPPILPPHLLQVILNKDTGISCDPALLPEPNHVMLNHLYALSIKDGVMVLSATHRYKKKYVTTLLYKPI
T2 sequence (P54645 13-559 partner limits assumed): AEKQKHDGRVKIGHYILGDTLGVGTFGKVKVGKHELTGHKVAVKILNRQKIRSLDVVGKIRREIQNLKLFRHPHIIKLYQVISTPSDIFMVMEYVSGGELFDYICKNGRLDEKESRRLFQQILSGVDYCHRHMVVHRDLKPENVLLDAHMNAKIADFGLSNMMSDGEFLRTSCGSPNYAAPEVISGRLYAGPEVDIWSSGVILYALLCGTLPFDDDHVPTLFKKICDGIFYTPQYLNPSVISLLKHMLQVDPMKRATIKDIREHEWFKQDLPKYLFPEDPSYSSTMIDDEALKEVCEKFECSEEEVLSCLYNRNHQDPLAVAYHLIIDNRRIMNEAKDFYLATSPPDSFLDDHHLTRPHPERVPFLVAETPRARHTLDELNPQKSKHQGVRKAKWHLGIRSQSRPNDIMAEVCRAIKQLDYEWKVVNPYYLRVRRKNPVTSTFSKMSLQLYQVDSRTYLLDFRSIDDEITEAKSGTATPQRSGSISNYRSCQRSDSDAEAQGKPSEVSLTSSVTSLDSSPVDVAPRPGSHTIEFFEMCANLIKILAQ
T2 sequence (P80385 whole entry partner, the tested form may be a part): as the sequence (P80385 whole entry partner) above

Row | Compound | inhibition at concentrations up to 100 mM (native rat liver AMPK) | binding to the GBD (GBD) | inhibition of wild-type recombinant α1β1γ1 [2] | inhibition of W100G/W133A mutant [3] | concentration that displaces the β1 GBD from glycogen (rat β1 GBD) | Kd [1] [µM] | competition with glycogen for binding to the GBD (rat β1 GBD; ref Polekhina et al. (2003, 2005))
1 | CO[C@H]1O[C@H](CO)[C@@H](O[C@H]2O[C@H](CO)[C@@H](O)[C@H](O)[C@H]2O)[C@H](O)[C@H]1O [Oligosaccharide 8, methyl α-maltoside] |  |  | not significant |  |  |  | 
2 | OC[C@H]1O[C@H](O[C@H]2[C@H](O)[C@@H](O)C(O)O[C@@H]2CO)[C@H](O)[C@@H](O)[C@@H]1O (mixture of isomers) [maltose] | did not cause any inhibition |  |  |  |  |  | 

Continued, in another order:

Row | inhibition at concentrations up to 100 mM (native rat liver AMPK) | binding to the GBD (GBD) | inhibition of wild-type recombinant α1β1γ1 [2] | inhibition of W100G/W133A mutant [3] | Compound | concentration that displaces the β1 GBD from glycogen (rat β1 GBD) | Kd [1] [µM] | competition with glycogen for binding to the GBD (rat β1 GBD; ref Polekhina et al. (2003, 2005))
3 | almost no inhibition | could bind |  |  | maltohexaose | greater than 1 mM | 700 | 
4 |  |  |  | abolished | OC[C@H]1O[C@@H]2O[C@H]3[C@H](O)[C@@H](O)[C@@H](O[C@H]4[C@H](O)[C@@H](O)[C@@H](O[C@H]5[C@H](O)[C@@H](O)[C@@H](O[C@H]6[C@H](O)[C@@H](O)[C@@H](O[C@H]7[C@H](O)[C@@H](O)[C@@H](O[C@H]8[C@H](O)[C@@H](O)[C@@H](O[C@H]1[C@H](O)[C@H]2O)O[C@@H]8CO)O[C@@H]7CO)O[C@@H]6CO)O[C@@H]5CO)O[C@@H]4CO)O[C@@H]3CO [β-cyclodextrin] |  | 300 | can compete
5 | almost no inhibition | could bind |  |  | maltoheptaose | greater than 1 mM | 400 | 

— publication PMC2642990, “The Glycogen-Binding Domain on the AMPK β Subunit Allows the Kinase to Act as a Glycogen Sensor” (Cell Metabolism, 2009)
